Data set [1] concerns the target T1, Receptor-type tyrosine-protein phosphatase C (Homo sapiens, UniProt P08575).
T1 sequence (P08575 whole entry): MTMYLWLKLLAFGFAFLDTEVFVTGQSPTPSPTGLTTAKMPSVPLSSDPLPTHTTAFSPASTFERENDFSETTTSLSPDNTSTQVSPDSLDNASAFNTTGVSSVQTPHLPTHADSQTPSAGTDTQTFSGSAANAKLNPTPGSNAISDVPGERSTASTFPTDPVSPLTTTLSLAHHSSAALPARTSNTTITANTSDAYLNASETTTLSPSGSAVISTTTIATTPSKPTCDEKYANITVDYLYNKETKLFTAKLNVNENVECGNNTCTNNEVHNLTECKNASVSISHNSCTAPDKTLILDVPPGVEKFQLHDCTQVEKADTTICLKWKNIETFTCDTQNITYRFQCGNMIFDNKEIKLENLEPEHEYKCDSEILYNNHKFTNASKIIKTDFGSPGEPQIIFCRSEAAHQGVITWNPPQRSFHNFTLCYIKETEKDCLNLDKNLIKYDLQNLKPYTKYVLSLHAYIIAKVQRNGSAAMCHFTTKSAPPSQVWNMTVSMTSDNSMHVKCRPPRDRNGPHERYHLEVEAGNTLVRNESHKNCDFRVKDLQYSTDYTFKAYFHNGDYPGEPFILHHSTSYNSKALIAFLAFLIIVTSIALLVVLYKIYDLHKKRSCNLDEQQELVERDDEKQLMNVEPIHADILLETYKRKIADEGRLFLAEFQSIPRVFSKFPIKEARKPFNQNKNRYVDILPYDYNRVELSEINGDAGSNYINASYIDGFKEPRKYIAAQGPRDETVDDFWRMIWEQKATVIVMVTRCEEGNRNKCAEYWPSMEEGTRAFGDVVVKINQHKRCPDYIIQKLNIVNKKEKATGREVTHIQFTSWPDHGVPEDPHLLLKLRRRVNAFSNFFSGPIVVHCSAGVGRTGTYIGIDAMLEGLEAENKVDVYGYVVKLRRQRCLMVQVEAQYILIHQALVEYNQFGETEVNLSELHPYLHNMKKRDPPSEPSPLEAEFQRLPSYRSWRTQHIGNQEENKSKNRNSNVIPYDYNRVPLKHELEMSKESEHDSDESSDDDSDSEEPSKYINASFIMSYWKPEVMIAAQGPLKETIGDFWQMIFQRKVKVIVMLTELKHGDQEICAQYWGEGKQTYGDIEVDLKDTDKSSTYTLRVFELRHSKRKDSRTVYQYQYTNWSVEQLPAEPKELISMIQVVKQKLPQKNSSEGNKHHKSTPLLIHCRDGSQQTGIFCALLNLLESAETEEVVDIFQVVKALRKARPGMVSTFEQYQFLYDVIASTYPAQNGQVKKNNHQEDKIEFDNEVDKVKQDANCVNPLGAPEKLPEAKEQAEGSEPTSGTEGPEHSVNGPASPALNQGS
The data set can be described thus: In vitro inhibitory activity against CD45 protein-tyrosine phosphatase.

Data set [2] addresses T2, Tyrosine-protein phosphatase non-receptor type 1 (Homo sapiens, UniProt P18031).
T2 sequence (P18031 whole entry): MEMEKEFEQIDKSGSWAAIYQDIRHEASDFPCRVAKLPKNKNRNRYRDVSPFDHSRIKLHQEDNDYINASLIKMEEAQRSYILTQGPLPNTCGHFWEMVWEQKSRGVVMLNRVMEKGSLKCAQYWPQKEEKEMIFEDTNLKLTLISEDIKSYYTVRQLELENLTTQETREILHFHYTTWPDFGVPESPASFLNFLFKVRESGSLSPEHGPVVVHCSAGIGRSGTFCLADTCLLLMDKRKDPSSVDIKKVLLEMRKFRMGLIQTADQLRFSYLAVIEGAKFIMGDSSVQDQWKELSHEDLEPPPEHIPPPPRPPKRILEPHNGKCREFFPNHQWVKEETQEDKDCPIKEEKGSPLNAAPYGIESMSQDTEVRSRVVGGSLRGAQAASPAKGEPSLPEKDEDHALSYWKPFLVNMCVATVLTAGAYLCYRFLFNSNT
The data set can be described thus: In vitro inhibitory activity against protein tyrosine phosphatase 1B (PTP1B) was determined in fluorescein diphosphate (FDP) assay.

The target in data set [3] is T2, Tyrosine-protein phosphatase non-receptor type 1. The data set can be described thus: In vitro inhibitory activity against Protein tyrosine phosphatase 1B (PTP1B) over-expressed in intact Sf9 cell assay.
A short description of data set [4]: Half life in ob/ob mice. It is filed as ADME, organism-based. The conditions noted are these: mouse, in vivo.
A short description of data set [5]: In vitro inhibitory activity against Protein tyrosine phosphatase 1B (PTP1B) over-expressed in intact Sf9 cell assay; NA denotes not active.
The nature of data set [6]: Oral bioavailability in rat. The class given is ADME, organism-based. The conditions noted are these: in vivo.
The nature of data set [7]: Maximal concentration in rat was determined. As to conditions: in vivo. The class given is ADME, organism-based.

The structures appear in SMILES notation. “And” between values parts separate entries of the source, which are not always exact repeats. Equal entries are not always repeated.

In general, IC50 refers to the concentration at which inhibition is half-maximal. Read a low IC50 as inhibition by little substance. As to `CS(=O)(=O)c1ccc(CC(Cc2ccc(C(F)(F)P(=O)(O)O)cc2)(C(=O)OCc2ccccc2)C(=O)OCc2ccccc2)cc1`, the concentration for half-maximal inhibition (IC50) in data set [1] is > 50000 nM; in data set [2], 940 nM; in data set [3], 7200 nM.
What is called half-life is the time needed for the level to fall by half in the phase considered. Low values mean rapid decline, high ones slow decline. On to `COC(=O)C(Cc1ccc(C(F)(F)P(=O)(O)O)cc1)(Cc1ccc(C(F)(F)P(=O)(O)O)cc1)C(=O)OCc1ccccc1`, for which the half-life in data set [4] was < 30 min. For the same compound, the values for the IC50 in data set [1], in data set [2] and in data set [3] were > 50000 nM, 190 nM and 1000 nM, respectively.
As for `O=C(OCc1ccccc1)C(Cc1ccc(C(F)(F)P(=O)(O)O)cc1)(Cc1ccc(C(F)(F)P(=O)(O)O)cc1)C(=O)OCc1ccccc1`, the IC50 in data set [1] is 19000 nM; in data set [2], 60 nM; in data set [3], 540 nM.
Consider `O=C(c1ccccc1)C(Cc1ccc(C(F)(F)P(=O)(O)O)c(-c2ccccc2)c1)c1ccccc1` (configuration not stated), for which the figures for the half-inhibitory concentration (IC50) in data set [1], in data set [2] and in data set [5] were > 50000 nM, 16000 nM and “Not Active”, respectively.
`CC(C)OC(=O)C(Cc1ccc(C(F)(F)P(=O)(O)O)cc1)(Cc1ccc(C(F)(F)P(=O)(O)O)cc1)C(=O)OC(C)C`: the IC50 in data set [1] was > 50000 nM; in data set [2], 110 nM; in data set [3], 1650 nM.
Usually bioavailability stands for dose-corrected exposure relative to a reference, in per cent. A lower bioavailability goes with poor availability. Broadly, the Cmax is the highest concentration seen after dosing. `O=C(c1ccccc1)C(Cc1ccc(C(F)(F)P(=O)(O)O)c(Br)c1)c1ccccc1` (configuration not stated) came in with a bioavailability in data set [6] of 13%. For the same compound, the peak level in data set [7] (Cmax) was 35 µM. The IC50 in data set [1] is > 50000 nM; in data set [3], 1220 nM.
Turning to `O=C(c1ccccc1)C(Cc1ccc(C(F)(F)P(=O)(O)O)c(Cl)c1)c1ccccc1` (configuration not stated), the IC50 in data set [1] was > 50000 nM; in data set [2] it was 360 nM; in data set [3] it was 2400 nM.
For `O=C(c1ccccc1)C(C/C=C/c1ccccc1)(Cc1ccc(C(F)(F)P(=O)(O)O)cc1)c1ccccc1` (configuration not stated) the same measures were 5500 nM, 190 nM and 2000 nM.
In the same order, the values of `CC(=O)NS(=O)(=O)c1ccc(CC(Cc2ccc(C(F)(F)P(=O)(O)O)cc2)(C(=O)OCc2ccccc2)C(=O)OCc2ccccc2)cc1` are 25000 nM, 90 nM and 1700 nM.
In the case of `O=C(c1ccccc1)C(Cc1ccc(C(F)(F)P(=O)(O)O)cc1)(Cc1ccc(C(F)(F)P(=O)(O)O)cc1)c1ccccc1`, the IC50 is > 50000 nM in data set [1]; 60 nM and 190 nM in data set [2]; 580 nM and 1500 nM in data set [3].
With `COC(=O)C(Cc1ccc(C(F)(F)P(=O)(O)O)cc1)(Cc1ccc(C(F)(F)P(=O)(O)O)cc1)C(=O)O`, the IC50 in data set [1] is > 50000 nM; in data set [2], 390 nM; in data set [3], 3800 nM.
For `O=P(O)(O)C(F)(F)c1ccc(CC(Cc2ccc(C(F)(F)P(=O)(O)O)cc2)(OCc2ccccc2)OCc2ccccc2)cc1` the same measures were > 50000 nM, 160 nM and 1300 nM.
In the same order, the values of `O=C(c1ccccc1)C(Cc1ccc(C(F)(F)P(=O)(O)O)cc1)c1ccccc1` (configuration not stated) are > 50000 nM, 2000 nM and 16000 nM.
As for `O=C(O)c1ccc(CC(Cc2ccc(C(F)(F)P(=O)(O)O)cc2)(C(=O)c2ccccc2)c2ccccc2)cc1` (configuration not stated), the IC50 in data set [1] is > 50000 nM; in data set [2], 800 nM; in data set [3] it was 6630 nM.
Consider `O=C(OCc1ccccc1)C(Cc1ccc(C(F)(F)C(=O)O)cc1)(Cc1ccc(C(F)(F)P(=O)(O)O)cc1)C(=O)OCc1ccccc1`, for which the IC50 in data set [1] is > 50000 nM; in data set [2], 40 nM; in data set [3] it was 1900 nM.

The values above are taken from ChEMBL document CHEMBL1146669, “The development of potent non-peptidic PTP-1B inhibitors” (Bioorg Med Chem Lett, 2004).
